From PubChem BioAssay AID1963429 (Molecular Pharmacology Branch, DTP, NCI, 2024)

Test system: 126254-015-R-J1-PDC complex spheroid growth, % test/control
Test: Anticancer human tumor 126254-015-R-J1-PDC patient-derived soft tissue sarcoma cell line growth inhibition [Asc]
Details: for IC50: curve of first compound; for viability, T/C: stronger effect = lower value
In short: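 Complex solid-tumor spheroids incorporating human endothelial and mesenchymal stem cells received single agents or combinations over half-log dilution ranges anchored to clinical Cmax.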

[1] = second compound 0.03 µM, first compound 0.0316 µM
[2] = second compound 0.03 µM, first compound 0.1 µM
[3] = second compound 0.03 µM, first compound 0.316 µM
[4] = second compound 0.03 µM, first compound 1 µM
[5] = second compound 0.03 µM, first compound 3.16 µM
[6] = second compound 0.03 µM, first compound 10 µM
[7] = second compound 0.0949 µM, first compound 0.0316 µM
[8] = second compound 0.0949 µM, first compound 0.1 µM
[9] = second compound 0.0949 µM, first compound 0.316 µM
[10] = second compound 0.0949 µM, first compound 1 µM
[11] = second compound 0.0949 µM, first compound 3.16 µM
[12] = second compound 0.0949 µM, first compound 10 µM
[13] = second compound 0.3 µM, first compound 0.0316 µM
[14] = second compound 0.3 µM, first compound 0.1 µM
[15] = second compound 0.3 µM, first compound 0.316 µM
[16] = second compound 0.3 µM, first compound 1 µM
[17] = second compound 0.3 µM, first compound 3.16 µM
[18] = second compound 0.3 µM, first compound 10 µM
[19] = second compound 0.949 µM, first compound 0.0316 µM
[20] = second compound 0.949 µM, first compound 0.1 µM
[21] = second compound 0.949 µM, first compound 0.316 µM
[22] = second compound 0.949 µM, first compound 1 µM
[23] = second compound 0.949 µM, first compound 3.16 µM
[24] = second compound 0.949 µM, first compound 10 µM
[25] = second compound 3 µM, first compound 0.0316 µM
[26] = second compound 3 µM, first compound 0.1 µM
[27] = second compound 3 µM, first compound 0.316 µM
[28] = second compound 3 µM, first compound 1 µM
[29] = second compound 3 µM, first compound 3.16 µM
[30] = second compound 3 µM, first compound 10 µM
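Note: spheroids exposed to compound for seven days.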
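Throughout, for viability, T/C: 100% = DMSO vehicle control wells.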

C=CC(=O)N1CCN(c2nc(=O)n(-c3c(C)ccnc3C(C)C)c3nc(-c4c(O)cccc4F)c(F)cc23)C(C)C1 (stereo not given) + CCN1C(C(=O)NC23CCC(C(=O)O)(CC2)CC3)C(c2cccc(Cl)c2F)C2(C(=O)Nc3cc(Cl)ccc32)C12CCCCC2
IC50 (second compound 0.03 µM): > 10000 nM
IC50 (second compound 0.0949 µM): > 10000 nM
IC50 (second compound 0.3 µM): > 10000 nM
IC50 (second compound 0.949 µM): > 10000 nM
IC50 (second compound 3 µM): > 10000 nM
viability, T/C [1]: 94.8%
viability, T/C [2]: 114%
viability, T/C [3]: 106%
viability, T/C [4]: 103%
viability, T/C [5]: 114%
viability, T/C [6]: 89%
viability, T/C [7]: 110%
viability, T/C [8]: 92.6%
viability, T/C [9]: 98.1%
viability, T/C [10]: 104%
viability, T/C [11]: 111%
viability, T/C [12]: 88.5%
viability, T/C [13]: 98.4%
viability, T/C [14]: 121%
viability, T/C [15]: 106%
viability, T/C [16]: 112%
viability, T/C [17]: 105%
viability, T/C [18]: 98.5%
viability, T/C [19]: 94.9%
viability, T/C [20]: 109%
viability, T/C [21]: 106%
viability, T/C [22]: 120%
viability, T/C [23]: 110%
viability, T/C [24]: 84.2%
viability, T/C [25]: 109%
viability, T/C [26]: 109%
viability, T/C [27]: 106%
viability, T/C [28]: 109%
viability, T/C [29]: 109%
viability, T/C [30]: 93.2%

Cc1nc(N2CCC3(CC2)COC(C)C3N)c(CO)nc1Sc1ccnc(N)c1Cl (stereo not given) + CNC(C)C(=O)NC1CN(S(=O)(=O)c2cccc(S(=O)(=O)N3CCC4CCC(C(=O)NC(c5ccccc5)c5ccccc5)N4C(=O)C(NC(=O)C(C)NC)C3)c2)CCC2CCC(C(=O)NC(c3ccccc3)c3ccccc3)N2C1=O
IC50 (second compound 0.01 µM): 2520 nM
IC50 (second compound 0.0316 µM): 893 nM
IC50 (second compound 0.1 µM): 443 nM
IC50 (second compound 0.316 µM): 264 nM
IC50 (second compound 1 µM): 196 nM
viability, T/C (second compound 0.01 µM, first compound 0.00949 µM): 93.8%
viability, T/C (second compound 0.01 µM, first compound 0.03 µM): 91.4%
viability, T/C (second compound 0.01 µM, first compound 0.0949 µM): 76.8%
viability, T/C (second compound 0.01 µM, first compound 0.3 µM): 65.9%
viability, T/C (second compound 0.01 µM, first compound 0.949 µM): 63.4%
viability, T/C (second compound 0.01 µM, first compound 3 µM): 46.8%
viability, T/C (second compound 0.0316 µM, first compound 0.00949 µM): 76%
viability, T/C (second compound 0.0316 µM, first compound 0.03 µM): 73.8%
viability, T/C (second compound 0.0316 µM, first compound 0.0949 µM): 67.9%
viability, T/C (second compound 0.0316 µM, first compound 0.3 µM): 67.5%
viability, T/C (second compound 0.0316 µM, first compound 0.949 µM): 48.4%
viability, T/C (second compound 0.0316 µM, first compound 3 µM): 42.2%
viability, T/C (second compound 0.1 µM, first compound 0.00949 µM): 72.7%
viability, T/C (second compound 0.1 µM, first compound 0.03 µM): 63%
viability, T/C (second compound 0.1 µM, first compound 0.0949 µM): 57.6%
viability, T/C (second compound 0.1 µM, first compound 0.3 µM): 52.5%
viability, T/C (second compound 0.1 µM, first compound 0.949 µM): 49.4%
viability, T/C (second compound 0.1 µM, first compound 3 µM): 35.5%
viability, T/C (second compound 0.316 µM, first compound 0.00949 µM): 57.8%
viability, T/C (second compound 0.316 µM, first compound 0.03 µM): 55.4%
viability, T/C (second compound 0.316 µM, first compound 0.0949 µM): 56.3%
viability, T/C (second compound 0.316 µM, first compound 0.3 µM): 52.1%
viability, T/C (second compound 0.316 µM, first compound 0.949 µM): 38.6%
viability, T/C (second compound 0.316 µM, first compound 3 µM): 41.9%
viability, T/C (second compound 1 µM, first compound 0.00949 µM): 57.6%
viability, T/C (second compound 1 µM, first compound 0.03 µM): 59.6%
viability, T/C (second compound 1 µM, first compound 0.0949 µM): 59.6%
viability, T/C (second compound 1 µM, first compound 0.3 µM): 44.7%
viability, T/C (second compound 1 µM, first compound 0.949 µM): 30%
viability, T/C (second compound 1 µM, first compound 3 µM): 33.5%

C#Cc1c(F)ccc2cc(O)cc(-c3ncc4c(N5CC6CCC(C5)N6)nc(OCC56CCCN5CC(F)C6)nc4c3F)c12 (stereo not given) + CCN1C(C(=O)NC23CCC(C(=O)O)(CC2)CC3)C(c2cccc(Cl)c2F)C2(C(=O)Nc3cc(Cl)ccc32)C12CCCCC2
IC50 (second compound 0.03 µM): > 10000 nM
IC50 (second compound 0.0949 µM): > 10000 nM
IC50 (second compound 0.3 µM): > 10000 nM
IC50 (second compound 0.949 µM): > 10000 nM
IC50 (second compound 3 µM): > 10000 nM
viability, T/C [1]: 96.1%
viability, T/C [2]: 102%
viability, T/C [3]: 100%
viability, T/C [4]: 96.2%
viability, T/C [5]: 95.5%
viability, T/C [6]: 79.4%
viability, T/C [7]: 101%
viability, T/C [8]: 95.3%
viability, T/C [9]: 96.2%
viability, T/C [10]: 84.8%
viability, T/C [11]: 87.3%
viability, T/C [12]: 69.9%
viability, T/C [13]: 99%
viability, T/C [14]: 104%
viability, T/C [15]: 97.7%
viability, T/C [16]: 101%
viability, T/C [17]: 99.2%
viability, T/C [18]: 88%
viability, T/C [19]: 92%
viability, T/C [20]: 103%
viability, T/C [21]: 94.9%
viability, T/C [22]: 88.7%
viability, T/C [23]: 97.3%
viability, T/C [24]: 93%
viability, T/C [25]: 103%
viability, T/C [26]: 94%
viability, T/C [27]: 86.1%
viability, T/C [28]: 98.6%
viability, T/C [29]: 86.2%
viability, T/C [30]: 78.5%

C=C(F)C(=O)N1CCN(c2nc(OCC3CCCN3C)nc3c2CCN(c2cccc4cccc(Cl)c24)C3)CC1CC#N (stereo not given) + CCN1C(C(=O)NC23CCC(C(=O)O)(CC2)CC3)C(c2cccc(Cl)c2F)C2(C(=O)Nc3cc(Cl)ccc32)C12CCCCC2
IC50 (second compound 0.03 µM): 2430 nM
IC50 (second compound 0.0949 µM): 2640 nM
IC50 (second compound 0.3 µM): 2730 nM
IC50 (second compound 0.949 µM): 2740 nM
IC50 (second compound 3 µM): 2920 nM
viability, T/C [1]: 105%
viability, T/C [2]: 103%
viability, T/C [3]: 102%
viability, T/C [4]: 95.9%
viability, T/C [5]: 36.5%
viability, T/C [6]: 0.16%
viability, T/C [7]: 101%
viability, T/C [8]: 104%
viability, T/C [9]: 94.9%
viability, T/C [10]: 93.8%
viability, T/C [11]: 41.9%
viability, T/C [12]: 0.16%
viability, T/C [13]: 101%
viability, T/C [14]: 105%
viability, T/C [15]: 97.4%
viability, T/C [16]: 93.9%
viability, T/C [17]: 43.6%
viability, T/C [18]: 0.16%
viability, T/C [19]: 107%
viability, T/C [20]: 123%
viability, T/C [21]: 100%
viability, T/C [22]: 101%
viability, T/C [23]: 42.7%
viability, T/C [24]: 0.17%
viability, T/C [25]: 104%
viability, T/C [26]: 114%
viability, T/C [27]: 103%
viability, T/C [28]: 98.9%
viability, T/C [29]: 46.3%
viability, T/C [30]: 0.21%
